Experimental data taken from patent publication US20040214832A1, “Piperazine derivative renin inhibitors” (priority 2003, published 2004).

These compounds were tested against T1, human renin (Homo sapiens, UniProt P00797) (assay: Determination of renin IC50 by tGFP FRET assay). Conditions: Human recombinant renin, tandem GFP substrate 650 nM, 60 min incubation with compound, pH 7.4, 11-point curve.
T1 sequence (P00797 67-406): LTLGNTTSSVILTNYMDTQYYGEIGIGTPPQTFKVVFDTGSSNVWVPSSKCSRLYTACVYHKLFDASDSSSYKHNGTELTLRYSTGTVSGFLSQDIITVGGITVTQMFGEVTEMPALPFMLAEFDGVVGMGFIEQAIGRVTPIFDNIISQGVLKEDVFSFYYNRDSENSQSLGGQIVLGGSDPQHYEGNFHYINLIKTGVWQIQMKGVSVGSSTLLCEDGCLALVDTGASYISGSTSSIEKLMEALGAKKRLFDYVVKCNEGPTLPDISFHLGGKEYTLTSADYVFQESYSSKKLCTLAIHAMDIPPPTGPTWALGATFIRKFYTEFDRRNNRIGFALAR
Assay type: biochemical
Excerpt: Determination of Renin IC50 by tGFP FRET Assay
The tGFP FRET (fluorescence resonance energy transfer) assay utilizes a tandem GFP substrate (60 kDa, Discovery Technologies) containing nine amino acid recognition sequences for human renin flanked by two GFP proteins. The assay is used to determine the ability of a compound to act as an inhibitor of renin enzymatic activity by determination of that concentration of test compound that inhibits by 50% (IC50) the ability of renin to cleave the tandem GFP substrate. The IC50 values are determined over an 11-point curve at concentrations of 100 μM to 1 pM. Each compound concentration used to construct the curve was dependent on renin inhibitor potency. For example, subnanomolar IC50 values were determined over an 11-point curve at concentrations of 10 μM to 1 pM. All other IC50 values were determined over an 11-point curve at concentrations of 100 μM to 0.0065 μM. The concentrations were achieved by diluting a 9.1 nM stock of Human recombinant renin in the appropriate amount of buffer containing 50 mM HEPES, 1 mM EDTA, 1% PEG (8000 MW), 1 mM DTT, 0.1% BSA, pH 7.4 to achieve the final concentration of 50.4 μIU. The tGFP substrate stock solution of 43 μM was diluted with the appropriate amount of the above buffer to obtain the final concentration of 650 nM. In addition, 1 μl of the compound is diluted in dimethylsulfoxide (DMSO) to represent an […] log scale (5% final). The SR renin and compound are added to a 384 capacity plate by an automated robot (BIOMEK). The plate is incubated for 60 minutes; upon completion the tGFP substrate is added.
The IC50 is determined by monitoring the increase in […] at 432/432 nm excitation, 530/475 nm emission with a cutoff at 515/455 nm, in a fluorometric plate reader.

SMILES | IC50 [µM]
COc1ccccc1COCCCOc1ccc(N2C(=O)CNC[C@@H]2COc2ccc3c(c2)N(CCCO)CCC3)cc1 [Example 44, (6R)-6-[1-(3-hydroxypropyl)-1,2,3,4-tetrahydroquinolin-7-yloxymethyl]-1-{4-[3-(2-methoxybenzyloxy)-propoxy]-phenyl}-piperazin-2-one] | 0.037
COc1ccccc1COCCCOc1ccc(N2C(=O)CNC[C@@H]2COCc2ccccc2)cc1 [Example 45, (6R)-6-benzyloxymethyl-1-{4-[3-(2-methoxybenzyloxy)-propoxy]-phenyl}-piperazin-2-one] | 7.01
COc1ccccc1COCCCOc1ccc(N2C(=O)CNC[C@H]2COCc2ccc(F)cc2)cc1 [Example 46, (6S)-6-(4-fluorobenzyloxymethyl)-1-{4-[3-(2-methoxybenzyloxy)-propoxy]-phenyl}-piperazin-2-one] | 5.59
O=C(NCCc1ccccc1)c1ccc(N2C(=O)CNC[C@@H]2COc2ccc3ccccc3c2)cc1 [Example 47, 4-[(2R)-2-(naphthalen-2-yloxymethyl)-6-oxopiperazin-1-yl]-N-phenethylbenzamide] | > 1
COCCCOc1cc(N2C(=O)CNC[C@@H]2COc2ccc3ccccc3c2)ccc1OC [Example 48, (6R)-1-[4-methoxy-3-(3-methoxypropoxy)-phenyl]-6-(naphthalen-2-yloxymethyl)-piperazin-2-one] | 3.84
CCOCCNC(=O)c1ccc(N2C(=O)CNC[C@@H]2COc2ccc3ccccc3c2)cc1 [Example 49, N-(2-ethoxyethyl)-4-[(2R)-2-(naphthalen-2-yloxymethyl)-6-oxopiperazin-1-yl]-benzamide] | > 1
COc1cccc(CCNC(=O)c2ccc(N3C(=O)CNC[C@@H]3COc3ccc4ccccc4c3)cc2)c1 [Example 50, N-[2-(3-methoxyphenyl)-ethyl]-4-[(2R)-2-(naphthalen-2-yloxymethyl)-6-oxopiperazin-1-yl]-benzamide] | > 1
COc1ccccc1COCCCOc1ccc(N2C(=O)CNC[C@@H]2COc2ccc3ccncc3c2)cc1 [Example 51, (6R)-6-(isoquinolin-7-yloxymethyl)-1-{4-[3-(2-methoxybenzyloxy)-propoxy]-phenyl}-piperazin-2-one] | 0.528
COc1ccccc1COCCCOc1ccc(N2C(=O)CNC[C@@H]2COc2ccc3ncccc3c2)cc1 [Example 52, (6R)-1-{4-[3-(2-methoxybenzyloxy)-propoxy]-phenyl}-6-(quinolin-6-yloxymethyl)-piperazin-2-one] | 3.45
O=C(NCCOc1ccccc1)c1ccc(N2C(=O)CNC[C@@H]2COc2ccc3ccccc3c2)cc1 [Example 53, 4-[(2R)-2-(naphthalen-2-yloxymethyl)-6-oxopiperazin-1-yl]-N-(2-phenoxyethyl)-benzamide] | > 1
COc1ccccc1COCCCOc1ccc(N2C(=O)CNC[C@@H]2COc2ccc3c(c2)CCCN3C(C)=O)cc1 [Example 54, (6R)-6-(1-acetyl-1,2,3,4-tetrahydroquinolin-6-yloxymethyl)-1-{4-[3-(2-methoxybenzyloxy)-propoxy]-phenyl}-piperazin-2-one] | > 1
COc1ccccc1COCCCOc1ccc(N2C(=O)CNC[C@@H]2COc2ccc3c(c2)N(Cc2cscn2)CCC3)cc1 [Example 55, (6R)-1-{4-[3-(2-methoxybenzyloxy)-propoxy]-phenyl}-6-(1-thiazol-4-ylmethyl-1,2,3,4-tetrahydroquinolin-7-yloxymethyl)-piperazin-2-one] | 0.379
COc1ccccc1COCCCOc1ccc(N2C(=O)CNC[C@@H]2COc2ccc3c(c2)N(CC(N)=O)CCC3)cc1 [Example 56, 2-[7-(1-{4-[3-(2-methoxybenzyloxy)-propoxy]-phenyl}-6-oxopiperazin-(2R)-ylmethoxy)-3,4-dihydro-2H-quinolin-1-yl]-acetamide] | 0.435
COc1ccccc1COCCCOc1ccc(N2C(=O)CNC[C@@H]2COc2ccc3c(c2)N(CCO)CCC3)cc1 [Example 57, (6R)-6-[1-(2-hydroxyethyl)-1,2,3,4-tetrahydroquinolin-7-yloxymethyl]-1-{4-[3-(2-methoxybenzyloxy)-propoxy]-phenyl}-piperazin-2-one] | 0.064
COc1ccccc1COCCCOc1ccc(N2C(=O)CNC[C@@H]2COC(=O)c2ccc3ccccc3c2)cc1 [Example 58, naphthalene-2-carboxylic acid (2R)-1-{4-[3-(2-methoxybenzyloxy)-propoxy]-phenyl}-6-oxopiperazin-2-yl methyl ester] | > 1
COc1ccccc1COCCCOc1ccc(N2C(=O)CNC[C@@H]2COC(=O)c2ccc(C)cc2)cc1 [Example 59, 4-methyl-benzoic acid (2R)-1-{4-[3-(2-methoxybenzyloxy)-propoxy]-phenyl}-6-oxopiperazin-2-yl methyl ester] | > 1
COc1ccccc1COCCCOc1ccc(N2C(=O)CNC[C@@H]2COC(=O)c2ccc(Cl)cc2)cc1 [Example 60, 4-chloro-benzoic acid (2R)-1-{4-[3-(2-methoxybenzyloxy)-propoxy]-phenyl}-6-oxopiperazin-2-yl methyl ester] | > 1
COc1ccccc1COCCCOc1ccc(N2C(=O)CNC[C@@H]2COC(=O)c2ccccc2)cc1 [Example 61, benzoic acid (2R)-1-{4-[3-(2-methoxybenzyloxy)-propoxy]-phenyl}-6-oxopiperazin-2-yl methyl ester] | > 1
COc1ccc(COC[C@H]2CNCCN2c2ccc(OCCCOCc3ccc(Cl)cc3)cc2)cc1 [Example 62, (2R)-1-{4-[3-(4-chlorobenzyloxy)-propoxy]-phenyl}-2-(4-methoxybenzyloxymethyl)-piperazine] | 43.7
COc1ccc(COC[C@H]2CNCCN2c2ccc(OCCCOCc3ccc(Cl)c(Cl)c3)cc2)cc1 [Example 63, (2R)-1-{4-[3-(3,4-dichlorobenzyloxy)-propoxy]-phenyl}-2-(4-methoxybenzyloxymethyl)-piperazine] | 11.5
COc1ccc(COC[C@H]2CNCCN2c2ccc(OCCCOCc3cccc(Cl)c3)cc2)cc1 [Example 64, (2R)-1-{4-[3-(3-chlorobenzyloxy)-propoxy]-phenyl}-2-(4-methoxybenzyloxymethyl)-piperazine] | 5.04
COc1ccc(COCCCOc2ccc(N3CCNC[C@@H]3COCc3ccc(OC)cc3)cc2)cc1 [Example 65, (2R)-2-(4-methoxybenzyloxymethyl)-1-{4-[3-(4-methoxybenzyloxy)-propoxy]-phenyl}-piperazine] | > 1
COc1ccc(COC[C@H]2CNCCN2c2ccc(OCCCOCc3ccccc3Cl)cc2)cc1 [Example 66, (2R)-1-{4-[3-(2-chlorobenzyloxy)-propoxy]-phenyl}-2-(4-methoxybenzyloxymethyl)-piperazine] | 15.9
COc1ccc(COC[C@H]2CNCCN2c2ccc(OCCCOCc3cc(F)cc(F)c3)cc2)cc1 [Example 67, (2R)-1-{4-[3-(3,5-difluorobenzyloxy)-propoxy]-phenyl}-2-(4-methoxybenzyloxymethyl)-piperazine] | 4.34
COc1ccc(COC[C@H]2CNCCN2c2ccc(OCCCOCc3ccc(C)cc3)cc2)cc1 [Example 68, (2R)-2-(4-methoxybenzyloxymethyl)-1-{4-[3-(4-methylbenzyloxy)-propoxy]-phenyl}-piperazine] | 60.2
COc1ccc(COC[C@H]2CNCCN2c2ccc(OCCCOCc3cccc(OC)c3)cc2)cc1 [Example 69, (2R)-2-(4-methoxybenzyloxymethyl)-1-{4-[3-(3-methoxybenzyloxy)-propoxy]-phenyl}-piperazine] | 15.6
COc1ccc(COC[C@H]2CNCCN2c2ccc(COCCCOc3ccccc3OC)cc2)cc1 [Example 70, (2R)-2-(4-methoxybenzyloxymethyl)-1-{4-[3-(2-methoxyphenoxy)-propoxymethyl]-phenyl}-piperazine] | > 1
COc1ccccc1OCCCCOc1ccc(N2C(=O)CNC[C@@H]2COCc2ccc(F)cc2)cc1 [Example 71, (6R)-6-(4-fluorobenzyloxymethyl)-1-{4-[4-(2-methoxyphenoxy)-butoxy]-phenyl}-piperazin-2-one] | 3.84
COc1ccc(COC[C@H]2CNCCN2c2ccc(COCCOCc3ccccc3OC)cc2)cc1 [Example 72, (2R)-1-{4-[2-(2-methoxybenzyloxy)-ethoxymethyl]-phenyl}-2-(4-methoxybenzyloxymethyl)-piperazine] | 30.5
